Reference: patent publication US6617114B1, “Identification of drug complementary combinatorial libraries” (priority 1996, dated 2003)
Where a SMILES comes first, the peptide text is derived from it. Bridges are numbered along the chain shown (N, C = ends).

What was measured:
E. coli ProRS [1] = target: T1, E. coli ProRS (Escherichia coli, UniProt P16659); assay: ProRS charging assay; format: biochemical
Procedure: One question that could be answered with peptides designed from these phage is whether or not they are directed to random regions on the target protein or if they target active sites and regions of other biological interactions. The peptides used in the above ELSAs were added to a charging assay to assess its affects on enzymatic activity of the target.

E. coli ProRS [2] = target: T1, E. coli ProRS; assay: ELSA of ProRS surrogate ligand; format: binding; conditions: tested on ProRS, GST-src SH3, GST, GST-UL44, TyrRS, GST-MDM2
Procedure: (§1) Target protein was immobilized in microtiter wells by incubating 0.5-2.0 μg per well in 100 μl of 0.1 M NaHCO3 overnight at 4° C. […] During the 1 hour blocking period, the SA-AP:surrogate ligand conjugate was prepared by mixing 2 μg SA-AP and 50 pmol biotinylated surrogate ligand for each well of target protein. (This corresponds to a 1:1 ratio of biotinylated peptide to biotin binding sites.) The mixture was incubated at room temperature for 15-20 minutes and then diluted with Tris-buffered saline-TWEEN-20 detergent (TBST) 10 mM Tris-HCl, pH 8.0, 150 mM NaCl, 0.05% TWEEN-20 detergent such that there was 100 μl of conjugate per well. For lower concentrations of surrogate ligand, an unrelated biotinylated peptide was titrated in to keep the total amount of biotinylated peptide at 50 pmol/well and total SA-AP at 2 μg/well.
(§2) After blocking, the wells were washed once with 200 μl TBST. The surrogate ligand:SA-AP conjugate was then added (100 μl/well) and incubated at room temperature for 2 hours. The wells were then washed 5 times with 300 μl TBST using a BioRad 1575 Immunowash plate washer. The assay was developed by adding 100 μl of pNPP and incubating at room temperature for 5-10 minutes. The absorbance was read at 405 nm.
(§3) A peptide corresponding to the most often isolated phage was synthesized and used in an ELSA as described in example 1. […]

TyrRS = TyrRS (Haemophilus influenzae, UniProt P43836); assay: ELSA of TyrRS surrogate ligand; format: binding; conditions: tested on TyrRS, GST-src SH3, GST, GST-UL44, GST-MDM2, ProRS
Procedure: as §1
as §2, with “nm. […]” for “nm.”
The ability of the compound to inhibit the binding of the TyrRS1B peptide to TyrRS was determined. […]

E. coli ProRS [3] = target: T2, E. coli ProRS (Escherichia coli, UniProt P16659); assay: ELSA of ProRS surrogate ligand; format: binding; conditions: self-competition
T2 sequence (P16659 whole entry, looked up): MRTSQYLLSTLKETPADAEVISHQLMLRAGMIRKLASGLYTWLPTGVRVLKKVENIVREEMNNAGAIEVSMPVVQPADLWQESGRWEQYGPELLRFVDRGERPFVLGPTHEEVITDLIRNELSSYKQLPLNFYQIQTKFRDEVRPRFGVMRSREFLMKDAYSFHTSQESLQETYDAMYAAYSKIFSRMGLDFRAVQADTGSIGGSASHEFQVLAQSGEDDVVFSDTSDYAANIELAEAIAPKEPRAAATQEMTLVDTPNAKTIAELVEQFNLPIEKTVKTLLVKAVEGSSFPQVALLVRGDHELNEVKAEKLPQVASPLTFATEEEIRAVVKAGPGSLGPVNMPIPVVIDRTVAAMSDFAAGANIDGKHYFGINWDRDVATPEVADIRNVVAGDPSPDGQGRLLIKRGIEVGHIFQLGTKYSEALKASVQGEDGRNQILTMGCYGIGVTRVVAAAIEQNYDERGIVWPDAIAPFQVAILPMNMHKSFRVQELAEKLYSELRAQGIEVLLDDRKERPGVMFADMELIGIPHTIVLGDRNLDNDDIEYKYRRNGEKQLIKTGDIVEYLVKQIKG
Procedure: as §1, §2, §3

Chain of TyrRS (P43836 whole entry): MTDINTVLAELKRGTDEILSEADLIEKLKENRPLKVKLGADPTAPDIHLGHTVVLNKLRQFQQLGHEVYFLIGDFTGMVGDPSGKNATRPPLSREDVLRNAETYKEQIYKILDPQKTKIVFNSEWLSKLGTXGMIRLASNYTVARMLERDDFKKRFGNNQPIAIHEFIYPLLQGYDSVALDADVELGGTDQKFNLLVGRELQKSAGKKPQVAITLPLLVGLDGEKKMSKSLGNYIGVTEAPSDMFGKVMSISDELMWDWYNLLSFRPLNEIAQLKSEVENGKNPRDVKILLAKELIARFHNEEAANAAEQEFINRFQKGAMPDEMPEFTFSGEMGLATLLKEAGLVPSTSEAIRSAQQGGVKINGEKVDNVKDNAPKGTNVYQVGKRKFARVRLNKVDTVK

`CC[C@H](C)[C@@H]1NC(=O)[C@H](C)NC(=O)[C@@H](NC(=O)[C@@H](NC(=O)[C@H](CCCNC(=N)N)NC(=O)[C@@H](N)CO)C(C)C)CSSC[C@@H](C(=O)N[C@@H](CO)C(=O)N[C@@H](CCCNC(=N)N)C(=O)O)NC(=O)CNC(=O)[C@H](CC(=O)O)NC(=O)[C@H](CC(C)C)NC(=O)[C@H](CC(=O)O)NC(=O)[C@@H]2CCCN2C(=O)[C@H](Cc2c[nH]c3ccccc23)NC1=O` [ProRS BioKey, S R V C A I W P D L D G C S R] (H-SRVCAIWPDLDGCSR-OH; disulfide 4-13; N-terminus and C-terminus assumed) was tested, and the “time of preincubation with the peptide for 50% inhibition” value (E. coli ProRS [1]; 530 μM peptide) was “about 1.5 hours”, the mode of inhibition (E. coli ProRS [1]; charging assay) was “competitive in respect to proline” and the “specificity of binding of biotinylated peptide” value (E. coli ProRS [2]) was “specific for E. coli ProRS”.
With “L Y S W P D E Q Y E R P (LYSWPDEQYERP) [Peptide 1]” the “specificity of binding of biotinylated peptide” value (TyrRS) was “binds to TyrRS specifically”.
In the case of “S R V C A I W P D L D G C S R (SRVCAIWPDLDGCSR) [non-biotinylated ProRS peptide]”, the “disruption of biotinylated ProRS peptide binding” value (E. coli ProRS [3]) is reported as “disrupted in a dose dependent fashion”.
